Data reported in paper PMC12461739, “Multi-targeted azacoumarin–cyanocinnamate hybrids induce G2/M arrest and apoptosis via tubulin, and COX-2/VEGFR modulation: insights from in vitro mechanistic basis and in vivo validation” (RSC Medicinal Chemistry, 2025).
Several values for one entry are separate records, joined by “and”; a condition that tells them apart may be missing. Equal values may be shown once. Read-outs that look alike come from different tables or passages of the source.

What was measured:
[1] = test system: MCF-7 cells; experiment: MTT antiproliferative assay, MCF-7; type: cell-based, human; settings: MTT, 48 h treatment, read-out: IC50, antiproliferative activity toward MCF-7
Protocol: (§1) The cytotoxic effects of the synthesized compounds were evaluated using the MTT assay. MCF-7, MDA-MB 231 (human breast cancer), and MCF-10A (non-tumorigenic breast epithelial) cells were seeded (1–3 × 10^4 cells per well) and incubated for 24 hours at 37 °C in a humidified atmosphere containing 5% CO2.[74] Following incubation, cells were treated with serial dilutions of the test compounds prepared in DMSO. The final concentration of DMSO in all wells, including controls, was maintained below 0.5% v/v to avoid solvent-related cytotoxicity. Doxorubicin was used as a positive control for comparison of antiproliferative activity. Following 48 hours of treatment, the culture medium was gently removed, and each well received 20 μL of MTT reagent (5 mg mL^−1 in phosphate-buffered saline). The plates were incubated at 37 °C for 4 hours to facilitate the enzymatic reduction of MTT into formazan by metabolically active cells. After incubation, the solution was discarded, and 100 μL of dimethyl sulfoxide was added. The absorbance of each well was measured at 570 nm using a microplate spectrophotometer. Cell viability was determined by comparing absorbance values to those of the untreated controls and expressed as a percentage. GraphPad Prism software was used to plot dose–response curves and calculate IC50 values.

[2] = test system: MDA-MB 231 cells; experiment: MTT antiproliferative assay, MDA-MB 231; type: cell-based, human; settings: Homo sapiens, MDA-MB-231, 48 h, MTT, 48 h treatment; read-out: IC50, antiproliferative activity toward MDA-MB 231
Protocol: as §1

[3] = MTT cytotoxicity assay, MCF-10A; type: cell-based, human; settings: human, MCF-10A non-tumorigenic breast epithelial cells, MTT, 48 h treatment, non-tumorigenic breast epithelial cells; read-out: IC50, cytotoxicity toward MCF-10A
Protocol: as §1, with “MCF-7, MDA-MB 231 (human breast cancer), and MCF-10A (non-tumorigenic breast epithelial) cells were seeded (1–3 × 10^4 cells per well) and incubated for 24 hours at 37 °C in a humidified atmosphere containing 5% CO2.[74]” left out

[4] = test system: MCF-10A cells; experiment: MTT cytotoxicity assay, MCF-10A; type: cell-based, human
Protocol: as §1, with “MCF-7, MDA-MB 231 (human breast cancer), and MCF-10A (non-tumorigenic breast epithelial) cells were seeded (1–3 × 10^4 cells per well) and incubated for 24 hours at 37 °C in a humidified atmosphere containing 5% CO2.[74]” left out

[5] = test system: Bax; experiment: qRT-PCR gene expression, Bax; type: cell-based, human; settings: MCF-7, 7.653 μM, 24 h
Protocol: (§2) Untreated cells served as negative controls. RNA concentration and purity were verified spectrophotometrically prior to cDNA synthesis. Complementary DNA (cDNA) was synthesized from purified RNA using the RT^2 First Strand Kit (Qiagen, Valencia, CA, USA) following the supplied protocol. Quantitative real-time PCR (qRT-PCR) was performed on a Corbett Rotor-Gene 6000 system (Qiagen, USA) using the RT^2 SYBR® Green ROX™ FAST Master Mix (Qiagen). Each 25 μL reaction contained 12.5 μL of master mix, 1 μL of gene-specific primers (RT^2 qPCR Primer Assays, Qiagen), 1 μL of cDNA template, and 10.5 μL of RNase-free water. Gene-specific primers were selected using the PrimerBank database for BAX, BCL2, and TP53, along with GAPDH as the endogenous control (Table S3). Thermal cycling conditions were set as follows: initial enzyme activation at 95 °C for 10 minutes, followed by 40 cycles of denaturation at 95 °C for 15 seconds, and annealing at 60 °C for 30 seconds. Amplification specificity was confirmed by melting curve analysis. Gene expression levels were normalized to GAPDH mRNA as the internal reference, and relative quantification was performed using the ΔΔCt method. […] Statistical analysis was performed using GraphPad Prism software, with p < 0.05 considered statistically significant.[79]

[6] = test system: p53; experiment: qRT-PCR gene expression, p53; type: cell-based, human; settings: MCF-7, 7.653 μM, 24 h
Protocol: as §2

[7] = Acute toxicity and lethal dose determination; type: in vivo, Swiss albino mice; settings: mice, i.p., 48 hour observation
Protocol: In the first phase, animals were injected with low doses (1, 1.5, 2, 2.5, 3, 3.5, 4, 6, 8, and 10 mg kg^−1) and observed for 24 hours. Since no mortality was observed, a second set of animals was treated with higher doses (15, 25, 50, 75, 100, and 200 mg kg^−1), with continuous monitoring for 48 hours post-injection. Control animals received sterile saline solution only. All mice were carefully observed for signs of toxicity, behavioral changes (e.g., grooming, feeding, and locomotion), and mortality. The maximum tolerated dose (LD0) was defined as the highest dose at which no mortality or significant toxic symptoms were observed, while the lethal dose (LD100) was identified as the dose at which all animals succumbed. These values were used to establish safe dosing limits for subsequent in vivo pharmacological and biochemical experiments.

[8] = test system: TNF-α; experiment: Serum TNF-α ELISA
Protocol: (§3) All animals were maintained under conventional laboratory conditions, including a controlled temperature of 22 ± 2 °C and a 12 hour light/dark photoperiod, with continuous access to standard pellet chow and water. On day 11, following the final treatment, ascitic fluid was collected from the peritoneal cavity using heparinized syringes for EAC cell viability and count analysis. Blood samples were collected under light ether anesthesia via the retro-orbital venous plexus and centrifuged at 3000 rpm for 10 minutes. The resulting serum was separated and stored at −20 °C for biochemical analysis.
Briefly, 96-well microplates pre-coated with a TNF-α-specific capture antibody were loaded with standards and serum samples, followed by incubation to allow antigen binding. After washing, a biotin-labeled detection antibody was added, followed by an avidin–HRP conjugate to amplify the signal. The enzymatic reaction was developed using a TMB substrate and stopped with an acidic solution. Absorbance was measured at 450 nm using the ELISA microplate reader. TNF-α concentrations were calculated by plotting sample absorbance values against a standard curve and expressed in pg mL^−1. All measurements were performed in triplicate, and data were presented as mean ± SD.

[9] = test system: VEGFR-II; experiment: Serum VEGFR-II ELISA
Protocol: as §3
Serum VEGFR-2 levels were quantified using a rat VEGFR-2 ELISA kit (Cusabio®, China; Catalog No. CSB-E07348r), based on a quantitative sandwich enzyme immunoassay format. Samples were added to 96-well plates pre-coated with a monoclonal antibody specific for VEGFR-2 and incubated to enable antigen binding. After washing to remove unbound material, a biotin-conjugated detection antibody was added, followed by an avidin–HRP complex. The enzymatic reaction was developed using TMB substrate and stopped with an acidic solution. Absorbance was measured at 450 nm using a microplate reader. The VEGFR-2 concentrations in the samples were calculated using a standard curve fitted with a four-parameter logistic (4-PL) regression model and expressed in nanograms per milliliter (ng mL^−1).

[10] = Hepatic oxidative stress markers (GSH, CAT, SOD, MDA)
Protocol: All animals were maintained under conventional laboratory conditions, including a controlled temperature of 22 ± 2 °C and a 12 hour light/dark photoperiod, with continuous access to standard pellet chow and water. On day 11, following the final treatment, ascitic fluid was collected from the peritoneal cavity using heparinized syringes for EAC cell viability and count analysis. Blood samples were collected under light ether anesthesia via the retro-orbital venous plexus and centrifuged at 3000 rpm for 10 minutes. The resulting serum was separated and stored at −20 °C for biochemical analysis. Additionally, liver and kidney tissues were excised from each animal for further evaluation. Each organ was divided into two parts: one portion was rinsed with ice-cold phosphate-buffered saline (PBS, pH 7.4) and stored at −20 °C for preparation of tissue homogenates used in biochemical assays. The second portion was fixed in 10% neutral buffered formalin for histopathological examination to assess tissue morphology and damage.[96,97]
Liver tissues were homogenized in an appropriate lysis buffer and centrifuged to obtain the supernatant. Samples were loaded into ELISA plates pre-coated with catalase-specific antibodies and incubated at 37 °C. After washing steps, a biotinylated detection antibody and horseradish peroxidase (HRP)-conjugated secondary antibody were sequentially added. The reaction was developed using a tetramethylbenzidine (TMB) substrate and stopped with sulfuric acid. Absorbance was measured at 450 nm using a microplate reader, and results were expressed as units per gram of tissue (U g^−1 tissue). All samples were run in triplicate, and data were reported as mean ± SD.
The assay employed a double-antibody sandwich ELISA technique, where wells are pre-coated with MDA-specific monoclonal antibodies. Liver tissue homogenate samples were added to the wells and incubated to allow specific antigen–antibody binding. After washing, a biotin-labeled polyclonal detection antibody was added, followed by an avidin–HRP conjugate. The enzymatic reaction was developed using a TMB substrate, yielding a colorimetric change proportional to the MDA concentration. The reaction was stopped with acid, and absorbance was measured at 450 nm using a microplate reader. Results were expressed as nanomole per gram of tissue (nmol g^−1 tissue). All measurements were performed in triplicate, and results are presented as mean ± SD.
The assay employs a sandwich ELISA technique in which GSH in the samples binds to monoclonal antibodies pre-coated on microplate wells. Following this, an HRP-conjugated detection antibody was added, and the plate was incubated at 37 °C for 1 hour. After several washing steps to remove unbound reagents, a TMB substrate solution was added, allowing the enzymatic colorimetric reaction to develop. The reaction was stopped with an acidic solution, and absorbance was measured at 450 nm using a microplate reader. The resulting color intensity was directly proportional to the GSH concentration in the sample, and results were expressed as picogram per gram of tissue (pg g^−1 tissue). All samples were assayed in triplicate, and results are reported as mean ± SD.
The assay employed a sandwich ELISA format, in which SOD present in the tissue homogenates binds to a specific monoclonal antibody pre-coated on microplate wells. After sample incubation at 37 °C for 60 minutes, an HRP-conjugated secondary antibody was added. Following thorough washing, the enzymatic reaction was initiated with a TMB substrate and stopped with an acidic solution, resulting in a measurable color change. Absorbance was recorded at 450 nm using a microplate reader, and results were expressed as units per gram of tissue (U g^−1 tissue). All samples were run in triplicate, and data were reported as mean ± SD.

CCOC(=O)/C(C#N)=C/c1ccc(Oc2c(C)c3cc(Br)c(O)c(Br)c3[nH]c2=O)cc1 [Compound 7, ethyl (E)-2-cyano-3-(4-((6,8-dibromo-7-hydroxy-4-methyl-2-oxo-1,2-dihydroquinolin-3-yl)oxy)phenyl)acrylate]
IC50 ([1]; Homo sapiens, MCF7, 48 h): 7.65 µM
IC50 [1]: 7.65 µM and 7.6 µM
IC50 [2]: 9.7 ± 1.15 µM
IC50 at 48 h [3]: 52 µM
selectivity index toward breast cancer cells ([4]; MCF-10A vs MCF-7 / MDA-MB 231): 5.3 to 6.8
IC50 ([4]; MTT, 48 h treatment, non-tumorigenic breast epithelial cells, read-out: IC50, cytotoxicity toward MCF-10A): 52.1 ± 1.76 µM
Bax expression relative to untreated control [5]: 5.22 fold
p53 expression relative to untreated control [6]: 3.03 fold
MTD at 48 h ([7]; Swiss albino, mouse, in vivo, ip, read-out: maximum tolerated dose (LD0)): 100 mg/kg
approximate lethal dose (LD100) [7]: ~200 mg/kg
serum TNF-α ([8]; EAC + compound 7 (10 mg kg^−1 i.p.), EAC control 156.80 ± 4.71): 56.42 ± 2.01 pg/mL
serum TNF-α ([8]; compound 7-only control group, no EAC): 29.37 ± 1.33 pg/mL
serum VEGFR-II ([9]; EAC + compound 7 (10 mg kg^−1 i.p.), EAC control 85.61 ± 2.47): 30.66 ± 1.31 ng/mL
serum VEGFR-II ([9]; compound 7-only control group, no EAC, untreated 18.23 ± 0.81): 14.03 ± 0.45 ng/mL
hepatic GSH ([10]; EAC + compound 7 (10 mg kg^−1 i.p.), EAC control 12.50 ± 0.55): 34.76 ± 1.71 pg g^−1 tissue
hepatic SOD ([10]; EAC + compound 7, EAC control 9.85 ± 0.53): 27.04 ± 0.70 U g^−1 tissue
hepatic CAT ([10]; EAC + compound 7, EAC control 11.71 ±1.42): 23.12 ± 1.09 U g^−1 tissue
hepatic MDA ([10]; EAC + compound 7, EAC control 53.57 ± 9.6): 17.04 ± 0.64 nmol g^−1 tissue
hepatic MDA ([10]; compound 7 control group, no EAC): 10.77 ± 0.70 nmol g^−1 tissue
hepatic GSH ([10]; compound 7 control group, no EAC, untreated 61.4 ± 2.99): 72.73 ± 1.37 pg g^−1 tissue
hepatic CAT ([10]; compound 7 control group, no EAC, untreated 65.23 ± 1.97): 60.88 ± 2.66 U g^−1 tissue
hepatic SOD ([10]; compound 7 control group, no EAC, untreated 77.56 ± 4.02): 77.05 ± 1.84 U g^−1 tissue
